Measured values as given in patent US8802597B2, “Herbicidal pyrimidines” (E I du Pont de Nemours and Company, priority 2003, dated 2014).
Like-named read-outs stand apart in the source and are kept apart here.

How the values were obtained:
Assay in all cases: Test C pre/postemergence
Type in all cases: in vivo
[1] = tested on: woolly cupgrass (Eriochloa villosa); conditions: Eriochloa villosa; for pest or weed control at 31 g/ha: 31 g ai/ha; for pest or weed control at 62 g/ha: 62 g ai/ha; for pest or weed control at 125 g/ha: 125 g ai/ha
Method in brief: (§1)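 Visual injury ratings, 0 (no effect) to 100 (complete control), made 12 to 14 days after treatment by comparison with untreated controls. Greenhouse plants received test chemical in a surfactant-containing non-phytotoxic solvent, either preemergence on planted seeds or postemergence at the 1- to 4-leaf stage.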

[2] = tested on: cocklebur (Xanthium strumarium); conditions: Xanthium strumarium; for pest or weed control at 31 g/ha: 31 g ai/ha; for pest or weed control at 62 g/ha: 62 g ai/ha; for pest or weed control at 125 g/ha: 125 g ai/ha
Method in brief: as §1

[3] = tested on: pigweed (Amaranthus retroflexus); conditions: Amaranthus retroflexus; for pest or weed control at 31 g/ha: 31 g ai/ha; for pest or weed control at 62 g/ha: 62 g ai/ha; for pest or weed control at 125 g/ha: 125 g ai/ha; for pest or weed control at 250 g/ha: 250 g ai/ha
Method in brief: as §1

[4] = tested on: kochia (Kochia scoparia); conditions: Bassia scoparia; for pest or weed control at 31 g/ha: 31 g ai/ha; for pest or weed control at 62 g/ha: 62 g ai/ha; for pest or weed control at 125 g/ha: 125 g ai/ha; for pest or weed control at 250 g/ha: 250 g ai/ha
Method in brief: as §1

[5] = tested on: common ragweed (Ambrosia elatior); conditions: Ambrosia artemisiifolia; for pest or weed control at 31 g/ha: 31 g ai/ha; for pest or weed control at 62 g/ha: 62 g ai/ha; for pest or weed control at 125 g/ha: 125 g ai/ha; for pest or weed control at 250 g/ha: 250 g ai/ha
Method in brief: as §1

[6] = tested on: corn (Zea mays); conditions: Zea mays, post-emergence, Postemergence
Method in brief: as §1

[7] = post-emergence, Postemergence, scale 0 to 100 (0 no effect, 100 complete control), read-out: Cupgrass, Woolly plant response rating
[8] = pre-emergence, Preemergence, scale 0 to 100, 0 no effect, 100 complete control, read-out: Plant response rating, Cupgrass, Woolly
[9] = post-emergence, Postemergence, scale 0 to 100 (0 no effect, 100 complete control), read-out: Cocklebur plant response rating
[10] = pre-emergence, Preemergence, scale 0 to 100, 0 no effect, 100 complete control, read-out: Plant response rating, Cocklebur
[11] = post-emergence, Postemergence, scale 0 to 100 (0 no effect, 100 complete control), read-out: Pigweed plant response rating
[12] = pre-emergence, Preemergence, scale 0 to 100, 0 no effect, 100 complete control, read-out: Plant response rating, Pigweed
[13] = pre-emergence, Preemergence, scale 0 to 100, read-out: Plant response rating, Pigweed
[14] = post-emergence, Postemergence, scale 0 to 100 (0 no effect, 100 complete control), read-out: Kochia plant response rating
[15] = pre-emergence, Preemergence, scale 0 to 100, 0 no effect, 100 complete control, read-out: Plant response rating, Kochia
[16] = pre-emergence, Preemergence, scale 0 to 100, read-out: Plant response rating, Kochia
[17] = post-emergence, Postemergence, scale 0 to 100 (0 no effect, 100 complete control), read-out: Ragweed plant response rating
[18] = pre-emergence, Preemergence, scale 0 to 100, 0 no effect, 100 complete control, read-out: Plant response rating, Ragweed
[19] = pre-emergence, Preemergence, scale 0 to 100, read-out: Plant response rating, Ragweed

CCOC(=O)c1nc(-c2ccc(Cl)cc2)nc(N)c1Cl [Compound 64, ethyl 6-amino-5-chloro-2-(4-chlorophenyl)-4-pyrimidinecarboxylate]
pest or weed control at 31 g/ha ([1]; post-emergence, Postemergence, read-out: Plant response rating (scale of 0 to 100), Cupgrass, Woolly): 30%
pest or weed control at 62 g/ha [1, 7]: 40%
pest or weed control at 125 g/ha [1, 7]: 65%
pest or weed control at 31 g/ha [1, 8]: 0%
pest or weed control at 62 g/ha [1, 8]: 0%
pest or weed control at 125 g/ha ([1]; pre-emergence, Preemergence, scale 0 to 100, read-out: Plant response rating, Cupgrass, Woolly): 0%
pest or weed control at 250 g/ha ([1]; pre-emergence, Preemergence, 250 g ai/ha, scale 0 to 100, read-out: Plant response rating, Cupgrass, Woolly): 40%
pest or weed control at 31 g/ha ([2]; post-emergence, Postemergence, read-out: Plant response rating (scale of 0 to 100), Cocklebur): 90%
pest or weed control at 62 g/ha [2, 9]: 90%
pest or weed control at 125 g/ha [2, 9]: 100%
pest or weed control at 31 g/ha [2, 10]: 0%
pest or weed control at 62 g/ha [2, 10]: 0%
pest or weed control at 125 g/ha ([2]; pre-emergence, Preemergence, scale 0 to 100, read-out: Plant response rating, Cocklebur): 5%
pest or weed control at 250 g/ha ([2]; pre-emergence, Preemergence, 250 g ai/ha, scale 0 to 100, read-out: Plant response rating, Cocklebur): 30%
pest or weed control at 31 g/ha ([3]; post-emergence, Postemergence, read-out: Plant response rating (scale of 0 to 100), Pigweed): 85%
pest or weed control at 62 g/ha [3, 11]: 95%
pest or weed control at 125 g/ha [3, 11]: 100%
pest or weed control at 250 g/ha ([3]; post-emergence, Postemergence, scale 0 to 100, read-out: Plant response rating, Pigweed): 100%
pest or weed control at 31 g/ha [3, 12]: 10%
pest or weed control at 62 g/ha [3, 12]: 30%
pest or weed control at 125 g/ha [3, 13]: 100%
pest or weed control at 250 g/ha [3, 13]: 100%
pest or weed control at 31 g/ha ([4]; post-emergence, Postemergence, read-out: Plant response rating (scale of 0 to 100), Kochia): 80%
pest or weed control at 62 g/ha [4, 14]: 85%
pest or weed control at 125 g/ha [4, 14]: 90%
pest or weed control at 250 g/ha ([4]; post-emergence, Postemergence, scale 0 to 100, read-out: Plant response rating, Kochia): 90%
pest or weed control at 31 g/ha [4, 15]: 20%
pest or weed control at 62 g/ha [4, 15]: 20%
pest or weed control at 125 g/ha [4, 16]: 25%
pest or weed control at 250 g/ha [4, 16]: 70%
pest or weed control at 31 g/ha ([5]; post-emergence, Postemergence, read-out: Plant response rating (scale of 0 to 100), Ragweed): 75%
pest or weed control at 62 g/ha [5, 17]: 80%
pest or weed control at 125 g/ha [5, 17]: 85%
pest or weed control at 250 g/ha ([5]; post-emergence, Postemergence, scale 0 to 100, read-out: Plant response rating, Ragweed): 90%
pest or weed control at 31 g/ha [5, 18]: 85%
pest or weed control at 62 g/ha [5, 18]: 85%
pest or weed control at 125 g/ha [5, 19]: 95%
pest or weed control at 250 g/ha [5, 19]: 100%
Corn plant response rating (crop injury, 0 = no effect, 100 = complete kill) at 31 g/ha ([6]; 31 g ai/ha, read-out: Plant response rating (scale of 0 to 100), Corn): 20%
Corn plant response rating (crop injury, 0 = no effect, 100 = complete kill) at 62 g/ha ([6]; 62 g ai/ha, scale 0 to 100 (0 no effect, 100 complete control), read-out: Corn plant response rating): 50%
Corn plant response rating (crop injury, 0 = no effect, 100 = complete kill) at 125 g/ha ([6]; 125 g ai/ha, scale 0 to 100 (0 no effect, 100 complete control), read-out: Corn plant response rating): 50%
